Values quoted from earlier work as cited in article PMC11173533, “Baicalin and Baicalein Enhance Cytotoxicity, Proapoptotic Activity, and Genotoxicity of Doxorubicin and Docetaxel in MCF-7 Breast Cancer Cells” (Molecules, 2024).

System: MRP1
Parameters: method as in PMID 15670588
Settings: 25 µmol/L; ref [65]; cited from earlier work

SMILES: O=c1cc(-c2ccccc2)oc2cc(O)c(O)c(O)c12 [baicalein, 5,6,7-Trihydroxyflavone]
- Inhibition of MRP1 protein activity: inhibit the activity of MRP2 and MRP1 proteins
